Test results from publication PMC4599575 (Journal of thrombosis and haemostasis : JTH, 2015).

Key:
Assay in all cases: surface plasmon resonance, protein immobilised on CM5 chip, […] Langmuir fit
Format in all cases: binding
[1] = target: T1, rADAMTS13 (rA13) (Homo sapiens, UniProt Q76LX8)
T1 sequence (Q76LX8 75-1427): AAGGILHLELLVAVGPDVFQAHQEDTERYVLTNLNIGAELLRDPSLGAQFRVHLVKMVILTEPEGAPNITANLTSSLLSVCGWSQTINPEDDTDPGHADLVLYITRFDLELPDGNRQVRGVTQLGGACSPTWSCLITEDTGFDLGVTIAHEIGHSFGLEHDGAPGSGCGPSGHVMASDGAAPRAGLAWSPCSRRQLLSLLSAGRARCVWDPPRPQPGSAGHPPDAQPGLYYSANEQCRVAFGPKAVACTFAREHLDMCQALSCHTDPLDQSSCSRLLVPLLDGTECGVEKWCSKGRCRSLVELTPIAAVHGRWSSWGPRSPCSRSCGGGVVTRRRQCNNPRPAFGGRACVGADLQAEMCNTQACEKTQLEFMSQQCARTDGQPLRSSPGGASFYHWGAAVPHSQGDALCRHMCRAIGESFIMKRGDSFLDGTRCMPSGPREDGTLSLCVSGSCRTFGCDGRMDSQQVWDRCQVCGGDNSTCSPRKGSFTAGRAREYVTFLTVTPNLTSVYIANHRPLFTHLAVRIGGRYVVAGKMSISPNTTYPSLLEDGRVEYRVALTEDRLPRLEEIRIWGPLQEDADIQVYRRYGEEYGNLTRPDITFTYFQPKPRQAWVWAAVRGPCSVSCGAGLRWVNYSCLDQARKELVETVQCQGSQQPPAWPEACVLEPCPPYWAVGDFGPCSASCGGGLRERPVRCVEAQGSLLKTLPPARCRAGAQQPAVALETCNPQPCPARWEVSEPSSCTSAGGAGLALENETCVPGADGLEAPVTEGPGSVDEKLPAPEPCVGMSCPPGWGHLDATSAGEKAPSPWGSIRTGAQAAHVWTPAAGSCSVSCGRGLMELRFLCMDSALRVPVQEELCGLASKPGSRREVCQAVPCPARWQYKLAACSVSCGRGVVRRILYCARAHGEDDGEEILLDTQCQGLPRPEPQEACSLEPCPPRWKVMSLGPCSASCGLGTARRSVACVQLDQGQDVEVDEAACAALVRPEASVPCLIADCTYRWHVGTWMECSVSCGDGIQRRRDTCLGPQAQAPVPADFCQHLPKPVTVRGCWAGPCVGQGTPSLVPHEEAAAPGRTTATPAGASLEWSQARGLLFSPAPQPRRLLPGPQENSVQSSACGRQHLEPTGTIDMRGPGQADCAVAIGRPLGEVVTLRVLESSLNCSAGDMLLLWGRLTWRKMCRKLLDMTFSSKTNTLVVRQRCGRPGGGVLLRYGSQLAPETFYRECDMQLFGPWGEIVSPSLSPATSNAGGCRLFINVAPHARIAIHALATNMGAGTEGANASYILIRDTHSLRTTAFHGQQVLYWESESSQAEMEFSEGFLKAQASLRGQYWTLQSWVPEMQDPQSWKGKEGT

[2] = target: GST-rVWF73-H (GST-VWF73-H) (Homo sapiens, UniProt P04275)
Sequence of GST-rVWF73-H (GST-VWF73-H) (P04275 1596-1668 limits assumed): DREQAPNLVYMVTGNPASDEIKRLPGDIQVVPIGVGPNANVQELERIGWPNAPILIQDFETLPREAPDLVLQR

[3] = target: VWF (plasma-derived multimeric VWF) (Homo sapiens, UniProt P04275)
Sequence of VWF (plasma-derived multimeric VWF) (P04275 764-2813): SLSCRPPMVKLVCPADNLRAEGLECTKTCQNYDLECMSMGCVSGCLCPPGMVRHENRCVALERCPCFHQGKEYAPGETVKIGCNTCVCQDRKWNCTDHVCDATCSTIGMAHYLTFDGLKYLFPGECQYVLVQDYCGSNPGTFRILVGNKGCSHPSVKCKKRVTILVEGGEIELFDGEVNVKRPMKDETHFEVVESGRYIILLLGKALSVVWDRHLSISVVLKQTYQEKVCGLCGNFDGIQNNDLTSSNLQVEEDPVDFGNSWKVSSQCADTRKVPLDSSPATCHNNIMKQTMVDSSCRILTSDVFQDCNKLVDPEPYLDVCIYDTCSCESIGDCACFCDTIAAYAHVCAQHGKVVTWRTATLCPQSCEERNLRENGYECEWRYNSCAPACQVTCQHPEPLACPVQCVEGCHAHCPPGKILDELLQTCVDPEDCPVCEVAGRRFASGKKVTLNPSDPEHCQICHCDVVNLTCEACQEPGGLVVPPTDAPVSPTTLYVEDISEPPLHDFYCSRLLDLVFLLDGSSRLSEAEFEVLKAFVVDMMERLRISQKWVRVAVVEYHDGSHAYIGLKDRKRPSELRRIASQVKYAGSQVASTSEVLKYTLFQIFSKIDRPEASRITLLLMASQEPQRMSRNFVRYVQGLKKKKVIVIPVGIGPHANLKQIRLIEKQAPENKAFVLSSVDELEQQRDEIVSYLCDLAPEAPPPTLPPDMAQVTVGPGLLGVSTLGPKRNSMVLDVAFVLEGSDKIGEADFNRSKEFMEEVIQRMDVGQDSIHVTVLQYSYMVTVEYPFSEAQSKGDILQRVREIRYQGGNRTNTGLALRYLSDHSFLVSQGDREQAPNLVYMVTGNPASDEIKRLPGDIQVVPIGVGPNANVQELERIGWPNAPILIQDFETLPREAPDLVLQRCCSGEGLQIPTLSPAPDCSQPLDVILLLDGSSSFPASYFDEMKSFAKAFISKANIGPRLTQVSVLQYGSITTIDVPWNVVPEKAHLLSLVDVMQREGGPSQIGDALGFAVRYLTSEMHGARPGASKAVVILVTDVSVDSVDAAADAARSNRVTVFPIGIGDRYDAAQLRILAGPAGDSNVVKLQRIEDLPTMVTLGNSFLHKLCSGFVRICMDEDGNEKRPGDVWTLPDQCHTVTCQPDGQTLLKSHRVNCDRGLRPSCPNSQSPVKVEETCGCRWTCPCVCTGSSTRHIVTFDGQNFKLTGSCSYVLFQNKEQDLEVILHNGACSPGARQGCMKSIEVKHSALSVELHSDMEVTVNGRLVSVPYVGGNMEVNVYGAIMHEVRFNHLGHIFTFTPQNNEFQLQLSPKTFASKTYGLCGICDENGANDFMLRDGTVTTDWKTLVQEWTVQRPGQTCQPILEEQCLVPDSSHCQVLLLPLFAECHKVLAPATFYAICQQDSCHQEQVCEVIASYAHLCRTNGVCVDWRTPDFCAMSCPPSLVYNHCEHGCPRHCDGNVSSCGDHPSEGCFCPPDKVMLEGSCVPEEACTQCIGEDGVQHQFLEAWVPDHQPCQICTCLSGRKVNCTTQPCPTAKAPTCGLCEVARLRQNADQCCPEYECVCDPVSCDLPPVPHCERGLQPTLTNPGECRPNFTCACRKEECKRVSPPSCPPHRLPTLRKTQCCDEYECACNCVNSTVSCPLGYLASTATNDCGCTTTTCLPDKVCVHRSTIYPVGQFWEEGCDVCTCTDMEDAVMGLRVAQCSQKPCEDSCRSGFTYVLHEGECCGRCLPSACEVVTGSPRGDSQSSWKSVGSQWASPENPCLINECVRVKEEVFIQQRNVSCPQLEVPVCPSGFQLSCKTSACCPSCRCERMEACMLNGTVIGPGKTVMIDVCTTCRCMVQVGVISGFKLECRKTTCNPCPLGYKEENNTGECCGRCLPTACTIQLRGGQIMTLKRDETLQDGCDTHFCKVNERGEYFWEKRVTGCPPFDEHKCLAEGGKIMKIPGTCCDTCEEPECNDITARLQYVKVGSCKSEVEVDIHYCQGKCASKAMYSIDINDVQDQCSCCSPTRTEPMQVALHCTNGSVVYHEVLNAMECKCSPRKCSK

C=CC1=C(C)/C(=C/c2[nH]c(Cc3[nH]c(/C=C4\NC(=O)C(C)=C4C=C)c(C)c3CCC(=O)O)c(CCC(=O)O)c2C)NC1=O [unconjugated bilirubin]
Kd [1]: 17.5 ± 4 µM
Kd [2]: 57.5 ± 80.7 µM
Kd [3]: 29.6 ± 40.1 µM
